{Fluor} = fluorophore: 5-carboxyfluorescein (FAM) or Alexa Fluor 488
Experiments:
Type in all cases: cell-based
[1] = tested on: DU145 cells; assay: Uptake of fluorophore-labeled oligonucleotides by flow cytometry
Description: FIG. 1 are graphs showing that AS1411 cell internalization is an active process. Cells were plated 18 h before uptake analysis. After incubation as described, cells were washed with ice-cold PBS, incubated with 1 μg/ml 7-AAD, harvested and resuspended in 1% paraformaldehyde containing 2 μg/ml actinomycin D, then analyzed by flow cytometry. (Panel A) DU145 cells were incubated at 37° C. with fresh complete DMEM medium containing 10 μM FL-AS1411 (black line) or 10 μM FL-CRO (gray line) for the time indicated. (Panel B) DU145 cells were incubated for 2 h at 37° C. in complete or serum-free DMEM medium containing 10 μM FL-AS1411, or 10 μM FL-CRO, or no oligonucleotide. (Panel C) Various cell lines were incubated with 10 μM FL-AS1411 (black outline histogram), 10 μM FL-CRO (gray outline histogram) or without DNA (solid gray histogram) at 37° C. or 4° C. for 2 h. All experiments were repeated at least three times. Data are mean of three independent samples; bars, SE; *(p<0.05).
FIG. 2 are graphs showing that AS1411 is internalized by different endocytic mechanisms in DU145 cancer cells and in non-malignant Hs27 cells. DU145 or Hs27 cells were plated 18 h before uptake analysis. Cells were pre-treated as described with inhibitor (gray histogram) or the corresponding vehicle control (black histogram) before addition of 10 μM FL-AS1411 and incubation at 37° C. for 2 h. After incubation, cells were harvested and analyzed by flow cytometry. Pre-treatment conditions were at 37° C. with: (Panel A) 5 μM Cytochalasin D for 30 min; (Panel B) 80 μM Dynasore for 30 min; or (Panel C) 3 mM amiloride for 1 h. All experiments were repeated at least three times and representative data are shown. Solid gray histograms represent background autofluorescence of unstained cells.
DU145 cells were transfected for 48 h without siRNA (mock, M), or with 30 nM of one of three different nucleolin siRNAs (NCL1, NCL2, NCL3) or a control siRNA (scramble, S), or contransfected with 10 nM of each nucleolin siRNAs (mix). (Panel A) Cells were lysed and total cell lyses were analyzed by Western blotting using the antibodies shown. (Panel B) Cell-surface proteins from intact transfected DU145 cells were labeled covalently with membrane-impermeable biotinylating agent. Cells were lysed, then biotinylated plasma membrane proteins were captured with streptavidin-agarose beads and analyzed by blotting with anti-nucleolin antibody (upper panel). After stripping, the membrane was reprobed with antibodies for a plasma membrane marker (anti-pan Cadherin) and a nuclear marker (anti-histone 3) to confirm the fractionation. Total lysate (Lys) was used as control. (Panel C) The medium of transfected cells was replaced by fresh complete DMEM medium containing no oligonucleotide (gray dashed histogram) or 10 μM FL-CRO (gray solid line histogram) or 10 μM FL-AS1411 (black solid line histogram) and incubated at 37° C. for 2 h. After incubation, cells were harvested and analyzed by flow cytometry.
DU145 cells were plated 18 hr before uptake analysis. Cell medium was changed with fresh complete DMEM medium containing different concentrations of FL-AS1411 (black line) or FL-CRO (gray line), and incubated at 37° C. for 2 hrs. After incubation, cells were harvested and analyzed by flow cytometry.
FIG. 9 are graphs showing the effects of inhibitors on various endocytic pathways. DU145 or Hs27 cells were plated 18 hr before uptake analysis. (Panel A) DU145 cells were pre-treated with dynamin inhibitor, […] Dynasore (black histogram) or DMSO (gray histogram) for 30 min at 37° C. After pre-treatment, cells were treated with […] transferrin conjugated with Alexa Fluor 488 for 30 min at 37° C. (Panel B) DU145 and Hs27 cells were pre-treated with 3 mM amiloride (black histogram) or vehicle (serum-free medium, gray histogram) for 1 h at 37° C. After pre-treatment, FL-CRO was added at a concentration of 10 μM and incubated at 37° C. for 2 h. After incubation, cells were harvested and analyzed by FACS. […]

[2] = tested on: DU145 cells; assay: Confocal microscopy localization and co-localization
Description: FIG. 3 are photographs showing that AS1411 co-localizes with the macropinocytic marker, dextran. DU145 or Hs27 cells were incubated with the reagents indicated, then washed and fixed. Nuclei were stained with DAPI (blue). The distribution of markers was visualized by confocal microscopy and fluorescent images were overlaid to determine co-localization as indicated by the yellow color. (Panel A) 10 μM AS1411 labeled with Alexa Fluor 488 (green) and 0.2 mg/ml dextran-10K, macropinocytic marker, labeled with Alexa Fluor 594 (red) for 2 h at 37° C. (Panel B) Experiments similar to those in Panel A but using FL-CRO in place of FL-AS1411. (Panel C) Cells incubated with 5 μg/ml transferrin labeled with Alexa Fluor 488 (green) and 0.2 mg/ml dextran-10K labeled with Alexa Fluor 594 (red) for 30 min at 37° C. (Panel D) DU145 cells incubated with 5 μg/ml transferrin labeled with Alexa Fluor 594 (red) and 10 μM AS1411 labeled with Alexa Fluor 488 (green) for 30 min at 37° C. Scale bars, 10 μm.
Cells (4×10^4) in fresh supplemented culture medium were plated on 18 mm diameter glass cover slips for 18 h. The media was removed and replaced with serum-free medium containing 10 μM oligodeoxynucleotide, dextran-10K, or transferrin and incubated as describe in the Description of the Drawings. After incubation, cells were washed 3 times with ice-cold PBS, fixed in 4% paraformaldehyde in PBS for 30 min at room temperature, and washed three times with PBS. After washing, the cover slips were mounted on glass slides with ProLong Antifade (Molecular Probes) according to the manufacturer's directions to inhibit photobleaching. Immunofluorescence was documented with an LSM 510 inverted confocal laser-scanning microscope (Carl Zeiss, Oberkochen, Germany) equipped with an Omnichrome argon-krypton laser. Images were obtained with a Zeiss Plan-Apo 63× oil immersion objective (1.4 NA).

[3] = tested on: DU145 CD24^lo/CD44^hi cells; assay: Spheroid culture; details: 10 μM AS1411, drug replenished weekly
Description: DU145 CD24^lo/CD44^hi cells were sorted by FACS, plated for sphere culture, and treated with or without 10 μM AS1411. Media was changed and drug replenished weekly. Plates were monitored for dissolution of spheres. Once dissolution was observed, serial photographs were taken of each well and the total number of spheres counted.

Row | Substance | saturability of uptake (dose-response) ([1]; 37° C. for 2 hrs) | co-localization with transferrin ([2]; 5 μg/ml transferrin, 10 μM AS1411 labeled with Alexa Fluor 488, 30 min at 37° C.) | effect on spheroids [3] | uptake compared with FL-AS1411 ([1]; 10 μM, 37° C., time course) | uptake compared with FL-AS1411 (confocal microscopy) ([2]; 10 μM, 2 h)
1 | 5′-d(GGTGGTGGTGGTTGTGGTGGTGGTGG) [AS1411] | did not appear to have saturable uptake | non-overlapping vesicles | can cause disintegration of spheroids | – | –
2 | 5′-Fluor-d(TTTCCTCCTCCTCCTTCTCCTCCTCCTCC) (DNA TTTCCTCCTCCTCCTTCTCCTCCTCCTCC; DNA, 5' {Fluor}, backbone and methylation of C not given here) [FL-CRO, reference compound] | – | – | – | consistently much lower than FL-AS1411 | much lower than FL-AS1411

— patent US20130065227A1, “METHODS OF INCREASING MACROPINOCYTOSIS IN CANCER CELLS” (priority 2010, published 2013)
